The test system of assay [1] is human acute myeloid leukemia MV-4-11 cell transplanted mouse. Briefly: Antitumor effect of 1 week intermittent administration to MV-4-11 cell transplanted mouse (tail vein, days 1 and 8). The format is in vivo. The note with it: tumor weight on day 15. As to the method: The in vivo antitumor effect of the compound of the present invention was studied using human acute myeloid leukemia MV-4-11 cell transplanted mouse. MV-4-11 cells were subcutaneously transplanted into the inguinal region of male, 6-week-old BALB/c nude mouse (5×10^6 cells/mouse). The compound of the present invention was administered into the tail vein on days 1 and 8 from the time point when the assumed tumor volume determined from ½ab^2 (a is major axis and b is minor axis of tumor) reached about 200 mm^3 (day 1). The control group was administered with a solvent, 10% Kolliphor ELP/5% ethanol/85% saline solution. On day 15, the tumor was isolated, the weight was measured, and the tumor growth inhibitory rate IR (%) was calculated by the following formula. tumor growth inhibitory rate IR (%)={1−(average tumor weight of administration group/average tumor weight of nonadministration control group)}×100(%)

The test system of assay [2] is human prostate cancer LNCaP cells. Briefly: Cytotoxic action on LNCaP cells (WST-8, 96 hr). It is filed as cell-based. The note with it: 96 hr culture. In short, it runs like this:
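WST-8 viable-cell readout after 96 hr compound exposure in 10% FBS/RPMI1640, 37° C, 5% CO2; cells pre-cultured overnight before dosing. Survival normalised to compound-free control (100%); IC50 by straight-line interpolation between the two concentrations flanking 50% survival.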

Another assay deals with BRD4 protein (Homo sapiens (Human), UniProt O60885). Briefly: BRD4 protein degradation inducing action in LNCaP cells (immunofluorescence, 6 hr). It is filed as cell-based. The note with it: anti-BRD4 fluorescence intensity. The gist of the method: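 Read-out is BRD4 immunofluorescence intensity (560/572 nm) after 6 hr compound treatment of LNCaP cells in 10% FBS/RPMI1640, with fixation, permeabilization and anti-BRD4 staining. Linear interpolation between the two concentrations flanking 50% of untreated intensity gives DC50.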

Marks after values point to notes of the source that are not given here.

For `COC(=O)C[C@@H]1N=C(c2ccc(-c3ccc(C(=O)NCc4ccc(S(=O)(=O)Nc5ccc(C)c6c(C#N)c[nH]c56)cc4)cc3Cl)cc2)c2c(sc(C)c2C)-n2c(C)nnc21` [Example 47, methyl [(6S)-4-{2′-chloro-4′-[({4-[(3-cyano-4-methyl-1H-indol-7-yl)sulfamoyl]phenyl}methyl)carbamoyl][1,1′-biphenyl]-4-yl}-2,3,9-trimethyl-6H-thieno[3,2-f][1,2,4]triazolo[4,3-a][1,4]diazepin-6-yl]acetate], the “tumor growth inhibitory rate” value is reported as 32* % in assay [1] (4 mg/kg/day) and 68** % in assay [1] (12.5 mg/kg/day). In assay [2], this compound showed an IC50 of 460 pM. Moreover, half-maximal degradation at BRD4 protein (DC50) was put at 300 pM.

Take `COC(=O)C[C@@H]1N=C(c2ccc(-c3ccc(C(=O)NCc4ccc(S(=O)(=O)Nc5ccc(C)c6c(C#N)c[nH]c56)cc4)c(F)c3F)cc2)c2c(sc(C)c2C)-n2c(C)nnc21` [Example 74, methyl [(6S)-4-{4′-[({4-[(3-cyano-4-methyl-1H-indol-7-yl)sulfamoyl]phenyl}methyl)carbamoyl]-2′,3′-difluoro[1,1′-biphenyl]-4-yl}-2,3,9-trimethyl-6H-thieno[3,2-f][1,2,4]triazolo[4,3-a][1,4]diazepin-6-yl]acetate]: the “tumor growth inhibitory rate” value is 43** % in assay [1] (4 mg/kg/day) and 94** % in assay [1] (12.5 mg/kg/day). Further, the IC50 in assay [2] amounted to 210 pM. Half-maximal degradation at BRD4 protein (DC50) was put at 92 pM.

In the case of `CCc1ccc(NS(=O)(=O)c2ccc([C@@H](C)NC(=O)c3cnc(-c4ccc(C5=N[C@@H](CC(=O)OC)c6nnc(C)n6-c6sc(C)c(C)c65)cc4)cn3)cc2)c2[nH]cc(C#N)c12` [Example 106, methyl {(6S)-4-[4-(5-{[(1R)-1-{4-[(3-cyano-4-ethyl-1H-indol-7-yl)sulfamoyl]phenyl}ethyl]carbamoyl}pyrazin-2-yl)phenyl]-2,3,9-trimethyl-6H-thieno[3,2-f][1,2,4]triazolo[4,3-a][1,4]diazepin-6-yl}acetate], the figures for the “tumor growth inhibitory rate” value in assay [1] (4 mg/kg/day) and in assay [1] (12.5 mg/kg/day) were 96** % and 98** %, respectively. In assay [2], this compound yielded an IC50 of 79 pM. The compound further returned a DC50 on BRD4 protein of 59 pM.

As to `Cc1sc2c(c1C)C(c1ccc(-c3ccc(C(=O)NCc4ccc(S(=O)(=O)Nc5ccc(C)c6c(C#N)c[nH]c56)cc4)c(Cl)c3)cc1)=N[C@@H](CC(=O)OC(C)(C)C)c1nnc(C)n1-2` [Example Compound 140, t-butyl [(6S)-4-{3′-chloro-4′-[({4-[(3-cyano-4-methyl-1H-indol-7-yl)sulfamoyl]phenyl}methyl)carbamoyl][1,1′-biphenyl]-4-yl}-2,3,9-trimethyl-6H-thieno[3,2-f][1,2,4]triazolo[4,3-a][1,4]diazepin-6-yl]acetate], in assay [2], the IC50 was determined as 520 pM. Besides, at BRD4 protein, it took 380 pM to reach half-maximal degradation (DC50).

For the compound `Cc1cc(-c2ccc(C3=N[C@@H](CC(=O)OC(C)(C)C)c4nnc(C)n4-c4sc(C)c(C)c43)cc2)ccc1C(=O)NCc1ccc(S(=O)(=O)Nc2ccc(C)c3c(C#N)c[nH]c23)cc1` [Example Compound 141, t-butyl [(6S)-4-{4′-[({4-[(3-cyano-4-methyl-1H-indol-7-yl)sulfamoyl]phenyl}methyl)carbamoyl]-3′-methyl[1,1′-biphenyl]-4-yl}-2,3,9-trimethyl-6H-thieno[3,2-f][1,2,4]triazolo[4,3-a][1,4]diazepin-6-yl]acetate], the midpoint of inhibition in assay [2], the IC50, lay at 920 pM. On BRD4 protein, this compound came in with a DC50 of 470 pM.

`Cc1sc2c(c1C)C(c1ccc(-c3ccc(C(=O)NCc4ccc(S(=O)(=O)Nc5ccc(C)c6c(C#N)c[nH]c56)cc4)cc3F)cc1)=N[C@@H](CC(=O)OC(C)(C)C)c1nnc(C)n1-2` [Example Compound 142, t-butyl [(6S)-4-{4′-[({4-[(3-cyano-4-methyl-1H-indol-7-yl)sulfamoyl]phenyl}methyl)carbamoyl]-2′-fluoro[1,1′-biphenyl]-4-yl)-2,3,9-trimethyl-6H-thieno[3,2-f][1,2,4]triazolo[4,3-a][1,4]diazepin-6-yl]acetate]: the IC50 in assay [2] is 1300 pM. Moreover, on BRD4 protein, the DC50 was determined as 510 pM.

`Cc1sc2c(c1C)C(c1ccc(-c3ccc(C(=O)NCc4ccc(S(=O)(=O)Nc5ccc(C)c6c(C#N)c[nH]c56)cc4)cc3Cl)cc1)=N[C@@H](CC(=O)OC(C)(C)C)c1nnc(C)n1-2` [Example Compound 143, t-butyl [(6S)-4-{2′-chloro-4′-[({4-[(3-cyano-4-methyl-1H-indol-7-yl)sulfamoyl]phenyl}methyl)carbamoyl][1,1′-biphenyl]-4-yl}-2,3,9-trimethyl-6H-thieno[3,2-f][1,2,4]triazolo[4,3-a][1,4]diazepin-6-yl]acetate] displayed an IC50 in assay [2] of 2400 pM. Also, the DC50 on BRD4 protein was found to be 1600 pM.

In assay [2], `Cc1cc(C(=O)NCc2ccc(S(=O)(=O)Nc3ccc(C)c4c(C#N)c[nH]c34)cc2)ccc1-c1ccc(C2=N[C@@H](CC(=O)OC(C)(C)C)c3nnc(C)n3-c3sc(C)c(C)c32)cc1` [Example Compound 144, t-butyl [(6S)-4-{4′-[({4-[(3-cyano-4-methyl-1H-indol-7-yl)sulfamoyl]phenyl}methyl)carbamoyl]-2′-methyl[1,1′-biphenyl]-4-yl}-2,3,9-trimethyl-6H-thieno[3,2-f][1,2,4]triazolo[4,3-a][1,4]diazepin-6-yl]acetate] yielded a 50% inhibitory concentration (IC50) of 1200 pM. On BRD4 protein, the DC50 is 590 pM.

With `Cc1sc2c(c1C)C(c1ccc(-c3ccc(C(=O)NCc4ccc(S(=O)(=O)Nc5ccc(C)c6c(C#N)c[nH]c56)cc4)nc3)cc1)=N[C@@H](CC(=O)OC(C)(C)C)c1nnc(C)n1-2` [Example Compound 145, t-butyl [(6S)-4-(4-{6-[({4-[(3-cyano-4-methyl-1H-indol-7-yl)sulfamoyl]phenyl}methyl)carbamoyl]pyridin-3-yl}phenyl)-2,3,9-trimethyl-6H-thieno[3,2-f][1,2,4]triazolo[4,3-a][1,4]diazepin-6-yl]acetate], the IC50 in assay [2] is 440 pM. Besides, on BRD4 protein, the DC50 came to 170 pM.

With `COC(=O)C[C@@H]1N=C(c2ccc(-c3cnc(C(=O)NCc4ccc(S(=O)(=O)Nc5ccc(C)c6c(C#N)c[nH]c56)cc4)nc3)cc2)c2c(sc(C)c2C)-n2c(C)nnc21` [Example Compound 146, methyl [(6S)-4-(4-{2-[({4-[(3-cyano-4-methyl-1H-indol-7-yl)sulfamoyl]phenyl}methyl)carbamoyl]pyrimidin-5-yl}phenyl)-2,3,9-trimethyl-6H-thieno[3,2-f][1,2,4]triazolo[4,3-a][1,4]diazepin-6-yl]acetate], the IC50 in assay [2] was 1300 pM. For the same compound, half-maximal degradation at BRD4 protein (DC50) was put at 260 pM.

`Cc1sc2c(c1C)C(c1ccc(-c3cnc(C(=O)NCc4ccc(S(=O)(=O)Nc5ccc(C)c6c(C#N)c[nH]c56)cc4)nc3)cc1)=N[C@@H](CC(=O)OC(C)(C)C)c1nnc(C)n1-2` [Example Compound 147, t-butyl [(6S)-4-(4-{2-[({4-[(3-cyano-4-methyl-1H-indol-7-yl)sulfamoyl]phenyl}methyl)carbamoyl]pyrimidin-5-yl}phenyl)-2,3,9-trimethyl-6H-thieno[3,2-f][1,2,4]triazolo[4,3-a][1,4]diazepin-6-yl]acetate] came in with an IC50 in assay [2] of 420 pM. Further, the DC50 at BRD4 protein was 130 pM.

`Cc1sc2c(c1C)C(c1ccc(-c3cnc(C(=O)NCc4ccc(S(=O)(=O)Nc5ccc(C)c6c(C#N)c[nH]c56)cc4)cn3)cc1)=N[C@@H](CC(=O)OC(C)(C)C)c1nnc(C)n1-2` [Example Compound 148, t-butyl [(6S)-4-(4-{5-[({4-[(3-cyano-4-methyl-1H-indol-7-yl)sulfamoyl]phenyl}methyl)carbamoyl]pyrazin-2-yl}phenyl)-2,3,9-trimethyl-6H-thieno[3,2-f][1,2,4]triazolo[4,3-a][1,4]diazepin-6-yl]acetate] yielded an IC50 in assay [2] of 200 pM. In addition, the half-maximal degradation concentration (DC50) on BRD4 protein was found to be 42 pM.

With `COC(=O)C[C@@H]1N=C(c2ccc(-c3ccc(C(=O)NCc4ccc(S(=O)(=O)Nc5ccc(C)c6c(C#N)c[nH]c56)cc4)nn3)cc2)c2c(sc(C)c2C)-n2c(C)nnc21` [Example Compound 149, methyl [(6S)-4-(4-{6-[({4-[(3-cyano-4-methyl-1H-indol-7-yl)sulfamoyl]phenyl}methyl)carbamoyl]pyridazin-3-yl}phenyl)-2,3,9-trimethyl-6H-thieno[3,2-f][1,2,4]triazolo[4,3-a][1,4]diazepin-6-yl]acetate], the IC50 in assay [2] is 540 pM. On BRD4 protein, this compound showed a DC50 of 180 pM.

Consider `Cc1sc2c(c1C)C(c1ccc(-c3ccc(C(=O)NCc4ccc(S(=O)(=O)Nc5ccc(C)c6c(C#N)c[nH]c56)cc4)nn3)cc1)=N[C@@H](CC(=O)OC(C)(C)C)c1nnc(C)n1-2` [Example Compound 150, t-butyl [(6S)-4-(4-{6-[({4-[(3-cyano-4-methyl-1H-indol-7-yl)sulfamoyl]phenyl}methyl)carbamoyl]pyridazin-3-yl}phenyl)-2,3,9-trimethyl-6H-thieno[3,2-f][1,2,4]triazolo[4,3-a][1,4]diazepin-6-yl]acetate], for which, in assay [2], the half-inhibitory concentration (IC50) amounted to 430 pM. Further, at BRD4 protein, the DC50 was determined as 120 pM.

(Values after patent publication US11890288B2, “Sulfonamide or sulfinamide compound having effect of inducing BRD4 protein degradation and pharmaceutical use thereof” (MITSUBISHI TANABE PHARMA CORPORATION, priority 2020, dated 2024).)
